Activity calls are given as the source filed them.
How the values were obtained:
[1] = target: Luciferin 4-monooxygenase (Photinus pyralis, UniProt P08659); assay: inhibition of purified Photinus pyralis luciferase – biochemical, luminescence, dose response (AID 1891)
[2] = Luminescence Cell-Based Dose Confirmation HTS to Identify Inhibitors of Platelet Dense Granule Release. [Related pubchem assays: 1663 (Primary HTS), 1678 (Summary of Project)]; type: functional
[3] = target: T1, Replicative DNA helicase DnaB (Mycobacterium tuberculosis, UniProt P9WMR3); assay: DnaB intein splicing inhibitors, dose response, biochemical, cell-free fluorescence (AID 449749); type: functional
T1 sequence (P9WMR3 whole entry): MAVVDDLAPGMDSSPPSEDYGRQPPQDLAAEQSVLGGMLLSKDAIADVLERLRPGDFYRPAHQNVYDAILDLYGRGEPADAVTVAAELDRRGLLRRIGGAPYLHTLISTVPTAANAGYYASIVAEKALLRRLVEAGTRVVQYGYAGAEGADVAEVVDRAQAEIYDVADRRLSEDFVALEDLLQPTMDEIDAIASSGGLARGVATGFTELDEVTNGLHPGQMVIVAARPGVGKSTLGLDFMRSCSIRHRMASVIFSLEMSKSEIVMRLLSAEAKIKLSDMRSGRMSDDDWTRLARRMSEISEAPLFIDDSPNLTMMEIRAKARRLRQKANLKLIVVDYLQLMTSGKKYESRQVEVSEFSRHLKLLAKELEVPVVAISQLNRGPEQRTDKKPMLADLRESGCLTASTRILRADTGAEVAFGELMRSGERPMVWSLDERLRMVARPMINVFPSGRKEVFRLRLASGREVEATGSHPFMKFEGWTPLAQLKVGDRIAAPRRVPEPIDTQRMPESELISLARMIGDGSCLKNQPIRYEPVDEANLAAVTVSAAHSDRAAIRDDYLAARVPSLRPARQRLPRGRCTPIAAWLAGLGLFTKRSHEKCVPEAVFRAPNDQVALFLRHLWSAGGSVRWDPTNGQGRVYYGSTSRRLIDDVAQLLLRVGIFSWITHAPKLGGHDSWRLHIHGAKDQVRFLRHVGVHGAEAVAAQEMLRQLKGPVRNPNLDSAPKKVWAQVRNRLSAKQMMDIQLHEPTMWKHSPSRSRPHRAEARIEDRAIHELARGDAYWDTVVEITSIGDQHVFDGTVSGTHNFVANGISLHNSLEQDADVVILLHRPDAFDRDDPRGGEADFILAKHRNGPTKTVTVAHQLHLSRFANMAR

Protein RecA = target: T2, Protein RecA (Mycobacterium tuberculosis, UniProt P9WHJ3); assay: Fluorescence Cell-Free Homogeneous Dose Retest to Identify Inhibitors of RecA-Intein Splicing Activity. [Related pubchem assays (depositor defined):AID2097, AID2223, AID489010, AID492950]; type: functional
T2 sequence (P9WHJ3 whole entry): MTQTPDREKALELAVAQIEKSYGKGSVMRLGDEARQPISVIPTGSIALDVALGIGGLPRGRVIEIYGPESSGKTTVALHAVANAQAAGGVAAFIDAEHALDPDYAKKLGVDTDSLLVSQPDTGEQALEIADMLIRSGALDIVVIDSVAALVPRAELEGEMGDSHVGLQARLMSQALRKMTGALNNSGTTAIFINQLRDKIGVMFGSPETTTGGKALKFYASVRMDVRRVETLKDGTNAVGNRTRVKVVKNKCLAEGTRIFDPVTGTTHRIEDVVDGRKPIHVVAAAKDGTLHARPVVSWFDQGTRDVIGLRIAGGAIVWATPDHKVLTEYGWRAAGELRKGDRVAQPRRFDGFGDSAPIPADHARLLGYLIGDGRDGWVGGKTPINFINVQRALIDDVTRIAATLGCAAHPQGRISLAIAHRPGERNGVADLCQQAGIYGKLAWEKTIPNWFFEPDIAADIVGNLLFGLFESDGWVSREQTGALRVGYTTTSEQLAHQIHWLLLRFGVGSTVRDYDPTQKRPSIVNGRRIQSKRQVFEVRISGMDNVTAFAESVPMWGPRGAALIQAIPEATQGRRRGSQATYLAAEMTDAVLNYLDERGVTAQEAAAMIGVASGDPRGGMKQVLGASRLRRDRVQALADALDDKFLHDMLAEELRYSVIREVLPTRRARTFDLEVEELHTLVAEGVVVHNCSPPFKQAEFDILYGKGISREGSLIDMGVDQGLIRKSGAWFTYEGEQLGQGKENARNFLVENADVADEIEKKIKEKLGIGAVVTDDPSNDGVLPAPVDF

[4] = NIH-3T3 fibroblast cytotoxicity, dose response, cytotoxicity control, cell-based, fluorescence, Alamar Blue, secondary assay (AID 2327); type: functional;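 also: NIH-3T3 mouse fibroblasts cultured with fluconazole at 8 µg/mL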
[5] = target: T3, Rac GTPase-activating protein 1 (Homo sapiens, UniProt Q9H0H5); assay: blockers of MgcRacGAP-driven Rac1 GTP hydrolysis – biochemical, ADP Hunter fluorescence, primary and confirmatory, confirmation (AID 624330); type: functional
T3 sequence (Q9H0H5 whole entry): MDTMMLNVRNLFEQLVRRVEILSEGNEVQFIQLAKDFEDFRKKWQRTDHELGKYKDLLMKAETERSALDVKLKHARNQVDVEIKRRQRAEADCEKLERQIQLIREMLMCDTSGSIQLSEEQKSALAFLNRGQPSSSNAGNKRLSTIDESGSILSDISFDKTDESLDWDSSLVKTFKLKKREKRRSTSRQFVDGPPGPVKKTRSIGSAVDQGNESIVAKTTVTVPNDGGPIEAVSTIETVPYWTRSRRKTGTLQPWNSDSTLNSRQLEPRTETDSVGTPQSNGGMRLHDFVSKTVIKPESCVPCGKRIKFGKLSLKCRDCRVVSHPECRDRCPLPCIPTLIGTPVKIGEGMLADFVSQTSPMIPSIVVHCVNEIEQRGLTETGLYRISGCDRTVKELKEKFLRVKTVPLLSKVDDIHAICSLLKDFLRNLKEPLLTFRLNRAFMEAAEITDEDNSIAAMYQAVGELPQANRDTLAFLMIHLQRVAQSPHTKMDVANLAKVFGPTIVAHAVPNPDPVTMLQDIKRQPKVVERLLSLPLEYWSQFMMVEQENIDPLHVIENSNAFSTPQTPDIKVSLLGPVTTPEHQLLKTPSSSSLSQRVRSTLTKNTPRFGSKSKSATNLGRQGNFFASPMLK

Large T antigen = Large T antigen (Simian virus 40, UniProt P03070); type: functional, Betapolyomavirus macacae;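 also: Confirmatory-stage PubChem screen for compounds that inhibit SV40 T antigen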
cells = type: functional
[6] = fluconazole-exposed Candida albicans growth modulators – fluorescence, retest, confirmation (AID 2467); type: functional, cell-based
[7] = Luminescence Cell-Based Dose Retest to Confirm Inhibitors of Cancer Stem Cells. [Related pubchem assays (depositor defined):AID2717, AID2721]; type: functional, Homo sapiens; details: Homo sapiens

Luciferin 4-monooxygenase, sequence (P08659 whole entry): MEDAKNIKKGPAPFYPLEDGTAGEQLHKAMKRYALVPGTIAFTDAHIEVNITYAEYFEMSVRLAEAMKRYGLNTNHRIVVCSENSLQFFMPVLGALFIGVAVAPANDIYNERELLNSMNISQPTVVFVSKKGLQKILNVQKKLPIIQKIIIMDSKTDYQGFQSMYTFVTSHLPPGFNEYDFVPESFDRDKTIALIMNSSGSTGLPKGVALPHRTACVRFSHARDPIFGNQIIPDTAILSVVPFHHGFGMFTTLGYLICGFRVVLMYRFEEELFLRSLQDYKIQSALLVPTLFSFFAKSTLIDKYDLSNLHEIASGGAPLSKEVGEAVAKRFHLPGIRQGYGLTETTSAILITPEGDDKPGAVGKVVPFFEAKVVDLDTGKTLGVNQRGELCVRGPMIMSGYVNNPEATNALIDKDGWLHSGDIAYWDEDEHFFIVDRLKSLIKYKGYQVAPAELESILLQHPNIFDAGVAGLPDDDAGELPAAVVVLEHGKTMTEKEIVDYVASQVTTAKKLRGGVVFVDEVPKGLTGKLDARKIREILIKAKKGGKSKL
Large T antigen, sequence (P03070 whole entry): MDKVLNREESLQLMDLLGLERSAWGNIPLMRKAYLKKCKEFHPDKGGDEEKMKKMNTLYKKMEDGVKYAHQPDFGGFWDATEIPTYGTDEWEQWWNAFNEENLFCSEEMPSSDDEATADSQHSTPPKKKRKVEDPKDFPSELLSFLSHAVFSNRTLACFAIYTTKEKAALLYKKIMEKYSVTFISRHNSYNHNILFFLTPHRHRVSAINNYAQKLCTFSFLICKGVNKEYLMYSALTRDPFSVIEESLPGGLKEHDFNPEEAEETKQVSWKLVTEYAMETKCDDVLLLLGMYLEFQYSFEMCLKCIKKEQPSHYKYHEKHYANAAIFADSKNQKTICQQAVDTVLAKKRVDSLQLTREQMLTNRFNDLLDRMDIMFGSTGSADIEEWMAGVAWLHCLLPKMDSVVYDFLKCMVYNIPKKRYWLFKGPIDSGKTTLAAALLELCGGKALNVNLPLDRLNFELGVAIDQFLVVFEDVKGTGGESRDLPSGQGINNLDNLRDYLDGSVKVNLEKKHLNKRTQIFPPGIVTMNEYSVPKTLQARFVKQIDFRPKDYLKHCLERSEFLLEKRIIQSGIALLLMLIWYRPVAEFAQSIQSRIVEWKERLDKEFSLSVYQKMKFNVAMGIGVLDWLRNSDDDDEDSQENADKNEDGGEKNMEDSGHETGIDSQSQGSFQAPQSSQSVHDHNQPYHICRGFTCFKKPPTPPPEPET

SMILES | EC50 [1] | EC50 [2] | AC50 [3] | further results
COc1ccccc1NC(=O)c1cc2n(n1)C(C(F)(F)F)CC(c1ccc3c(c1)OCO3)N2 (centres undefined) | > 112 µM (not active) | > 112 µM (not active) | – | –
CSc1nc(-c2ccco2)nn1C(=O)c1cccs1 | – | – | 28.3 µM (active) | EC50 (Protein RecA): 24.7 µM (active)
CC1CCCCN1S(=O)(=O)c1ccc(NC(=O)c2cccc(-n3cnnn3)c2)cc1 (centres undefined) | – | – | – | EC50 [4]: > 150 µM (inactive)
O=C1/C(=C\c2ccc(O)c(O)c2)N=C2CCCCCN12 | – | – | – | IC50 [5]: 17.4 µM (active); IC50 (Large T antigen): 6.68 µM (active)
O=C(Oc1ccc(/C=N/O)cc1)c1ccccc1Cl | – | – | – | IC50 (cells): 22.6 µM (active)
O=C(O)/C=C\C(=O)Nc1ccc(Oc2ccc(Br)cc2)cc1 | – | – | 14.6 µM (active) | EC50 (Protein RecA): 11 µM (active)
CCn1c(SCC(=O)N(C)c2c(N)n(Cc3ccccc3)c(=O)[nH]c2=O)nc2ccccc21 | > 112 µM (not active) | > 112 µM (not active) | – | –
CCc1n[nH]c(SCC(=O)Nc2ccc(N(C)C)cc2)n1 | – | – | – | IC50 (Large T antigen): 15.5 µM (active)
CCN1CCN(Cc2nc3c(c(=O)[nH]c(=O)n3C)n2Cc2ccccc2Cl)CC1 | > 112 µM (not active) | 18.6 µM (active) | – | –
Cc1n[nH]c2c1C(c1c(C)nn(C)c1C)C(C#N)=C(N)O2 (centres undefined) | – | – | 4.2 µM (active) | EC50 (Protein RecA): 4.86 µM (active)
COCc1n[nH]c2c1C(c1ccccc1F)C(C#N)=C(N)O2 (centres undefined) | – | – | 36.4 µM (active) | EC50 (Protein RecA): 6.49 µM (active)
COC(=O)c1ccc(NC(=O)C(=O)c2cccn2C)cc1 | 1.74 µM (active) | 2.39 µM (active) | – | –
CCOC(=O)C1CCN(C(c2ccccn2)c2c(C)[nH]c3ccccc23)CC1 (centres undefined) | > 112 µM (not active) | 16.5 µM (active) | – | –
Cc1ccc(S(=O)(=O)CC(C)N2CCOCC2)c(S(=O)(=O)CC(C)N2CCOCC2)c1 (centres undefined) | – | – | – | EC50 [6]: 6.26 µM (active); EC50 [4]: > 160 µM (inactive)
O=C1NC(c2ccc(-c3ccccc3[N+](=O)[O-])o2)C(C(=O)c2ccc(Cl)cc2)C(O)(C(F)(F)F)N1 (centres undefined) | – | – | 4.27 µM (active) | AC50 [7]: 9.56 µM (active)
CCCCOC(=O)c1ccc(OC(=O)N2CCOCC2)cc1 | > 112 µM (not active) | > 112 µM (not active) | – | –
